Source: US20230106506A1, “NOVEL PqsR INVERSE AGONISTS” (Helmholtz-Zentrum Fur Infektionsforschung GmbH, priority 2020, published 2023)

What was measured:
[1] = Kinetic turbidimetric aqueous solubility; type: physicochemical; settings: aqueous buffer, kinetic from dmso stock; PBS buffer, final DMSO 2%, absorbance 620 nm; read-out: Kinetic Turbidimetric Aqueous Solubility at room temperature for 5 min
Experimental: Kinetic Turbidimetric Aqueous Solubility at room temperature for 5 min. […] Data was analyzed by fitting a four parameter sigmoidal function to the measured and normalized absorbances and AUC calculation providing access to Log S (decadic logarithm of the solubility).

[2] = Metabolic stability in mouse liver microsomes (MLM); type: in vitro ADME; settings: 1 μM compound, 0.5 mg/mL MLM, 1 mM NADPH, 37° C., read-out: half-life (t1/2) towards MLM
Experimental: For the evaluation of phase I metabolic stability, the compound (1 μM) was incubated with 0.5 mg/mL MLM (Corning) and 1 mM NADPH at 37° C. for 0, 5, 10, 15 and 30 min. The metabolic stability of Verapamil, Diphenhydramine and Benzydamine (1 μM each) were determined in parallel to confirm the enzymatic activity of the MLM. The incubation was stopped by addition of 2 volumes of acetonitrile containing internal standard (1 μM Leucine Enkephaline). Samples were centrifuged (15 min, 3,500 rpm). Concentration of the remaining test compound at the different time points was analyzed by HPLC-MS/MS and used to determine half-life (t1/2).

[3] = test system: P. aeruginosa pyocyanin production; assay: Pyocyanin assay; type: cell-based, P. aeruginosa strain PA14; settings: Pseudomonas aeruginosa, PA14, 16 h, read-out: IC50-value towards pyocyanin production
Experimental: Inhibition of P. aeruginosa pyocyanin production by compounds was determined photometrically as described before. In short, an overnight culture of PA14 in PPGAS medium was washed, diluted in medium to a start OD600 of 0.02, and incubated for 16 h (37° C., 200 rpm, relative humidity 75%) in the presence of test compounds. Then, cultures were extracted with chloroform and re-extracted with 0.2 M HCl. Protonated red colored pyocyanin was determined by measuring OD520 and normalizing to OD600.

Compound | solubility at 5 min [1] [µM] | half-life at 1 µM [2] [h] | IC50 [3] [nM]
CC(C)Oc1ccc(-n2cc(CNc3cc(-c4cn[nH]c4)nc(C(F)(F)F)c3)nn2)cc1 [Compound 05, N-((1-(4-Isopropoxyphenyl)-1H-1,2,3-triazol-4-yl)methyl)-2-(1H-pyrazol-4-yl)-6-(trifluoromethyl)pyridin-4-amine] | > 25 |  | 
CC(C)Oc1ccc(-n2cc(CNc3cc(-n4cncn4)nc(C(F)(F)F)c3)nn2)cc1 [Compound 06, N-((1-(4-Isopropoxyphenyl)-1H-1,2,3-triazol-4-yl)methyl)-2-(1H-1,2,4-triazol-1-yl)-6-(trifluoromethyl)pyridin-4-amine] | > 10 | 1.02 to 1.67 | 
CC(C)Oc1ccc(-c2ncc(CNc3cc(-c4nn[nH]n4)nc(C(F)(F)F)c3)s2)cc1 [Compound 19] | ≥ 100 | > 1.67 | 
CC(C)Oc1ccc(-c2ccc(CNc3cc(-c4cn[nH]c4)nc(C(F)(F)F)c3)nc2)cc1 [Compound 20, N-((5-(4-Isopropoxyphenyl)pyridin-2-yl)methyl)-2-(1H-pyrazol-4-yl)-6-(trifluoromethyl)pyridin-4-amine] | > 10 | > 1.67 | 101 to 200
CC(C)Oc1ccc(-c2ccc(CNc3cc(-c4cn[nH]c4)nc(C(F)(F)F)c3)nn2)cc1 [Compound 22, N-((6-(4-Isopropoxyphenyl)pyridazin-3-yl)methyl)-2-(1H-pyrazol-4-yl)-6-(trifluoromethyl)pyridin-4-amine] | > 25 |  | 201 to 500
CC(C)Oc1ccc(-c2ccc(CNc3cc(-n4cncn4)nc(C(F)(F)F)c3)nc2)cc1 [Compound 25, N-((5-(4-Isopropoxyphenyl)pyridin-2-yl)methyl)-2-(1H-1,2,4-triazol-1-yl)-6-(trifluoromethyl)pyridin-4-amine] |  | > 1.67 | 101 to 200
CC(C)Oc1ccc(-c2ccc(CNc3cc(-n4cncn4)nc(C(F)(F)F)c3)nc2)cc1Cl [Compound 26, N-((5-(3-Chloro-4-isopropoxyphenyl)pyridin-2-yl)methyl)-2-(1H-1,2,4-triazol-1-yl)-6-(trifluoromethyl)pyridin-4-amine] |  | > 1.67 | 201 to 500
CC(C)Oc1ccc(-c2ncc(CNc3cc(-n4ccnc4)nc(C(F)(F)F)c3)cn2)cc1 [Compound 29, 2-(1H-Imidazol-1-yl)-N-((2-(4-isopropoxyphenyl)pyrimidin-5-yl)methyl)-6-(trifluoromethyl)pyridin-4-amine] |  | > 1.67 | 101 to 200
CC(C)Oc1ccc(-c2ncc(CNc3cc(-c4cc[nH]n4)nc(C(F)(F)F)c3)cn2)cc1Cl [Compound 32, N-((2-(3-Chloro-4-isopropoxyphenyl)pyrimidin-5-yl)methyl)-2-(1H-pyrazol-3-yl)-6-(trifluoromethyl)pyridin-4-amine] |  | 1.02 to 1.67 | 201 to 500
N#Cc1cccc(-c2ncc(CNc3cc(-c4cn[nH]c4)nc(C(F)(F)F)c3)cn2)c1 [Compound 36, 3-(5-(((2-(1H-Pyrazol-4-yl)-6-(trifluoromethyl)pyridin-4-yl)amino)methyl)pyrimidin-2-yl)benzonitrile] | > 25 |  | 201 to 500
Cc1ccc(-c2ncc(CNc3cc(-c4cn[nH]c4)nc(C(F)(F)F)c3)cn2)cc1C#N [Compound 37, 5-(5-(((2-(1H-Pyrazol-4-yl)-6-(trifluoromethyl)pyridin-4-yl)amino)methyl)pyrimidin-2-yl)-2-methylbenzonitrile] | > 10 |  | 101 to 200
N#Cc1cc(-c2ncc(CNc3cc(-c4cn[nH]c4)nc(C(F)(F)F)c3)cn2)ccc1F [Compound 38, 5-(5-(((2-(1H-Pyrazol-4-yl)-6-(trifluoromethyl)pyridin-4-yl)amino)methyl)pyrimidin-2-yl)-2-fluorobenzonitrile] | > 25 |  | 101 to 200
CC(C)Oc1ccc(-c2cnc(CNc3cc(-c4cn[nH]c4)nc(C(F)(F)F)c3)nc2)cc1 [Compound 40, N-((5-(4-Isopropoxyphenyl)pyrimidin-2-yl)methyl)-2-(1H-pyrazol-4-yl)-6-(trifluoromethyl)pyridin-4-amine] | > 10 |  | 201 to 500
CC(C)Oc1ccc(-c2ncc(CNc3cc(-c4cnc[nH]4)nc(C(F)(F)F)c3)cn2)cc1 [Compound 41, 2-(1H-Imidazol-5-yl)-N-((2-(4-isopropoxyphenyl)pyrimidin-5-yl)methyl)-6-(trifluoromethyl)pyridin-4-amine] | > 10 | > 1.67 | 
CC(C)Oc1ccc(-c2cnc(CNc3cc(-n4cncn4)nc(C(F)(F)F)c3)nc2)cc1 [Compound 42, N-((5-(4-Isopropoxyphenyl)pyrimidin-2-yl)methyl)-2-(1H-1,2,4-triazol-1-yl)-6-(trifluoromethyl)pyridin-4-amine] |  | > 1.67 | 201 to 500
CC(C)Oc1ccc(-c2cnc(CNc3cc(-n4cncn4)nc(C(F)(F)F)c3)nc2)cc1Cl [Compound 43, N-((5-(3-Chloro-4-isopropoxyphenyl)pyrimidin-2-yl)methyl)-2-(1H-1,2,4-triazol-1-yl)-6-(trifluoromethyl)pyridin-4-amine] | > 10 | > 1.67 | 
CC(C)Oc1ccc(-c2cnc(CNc3cc(-c4cnn(C)c4)nc(C(F)(F)F)c3)nc2)cc1 [Compound 44, N-((5-(4-Isopropoxyphenyl)pyrimidin-2-yl)methyl)-2-(1-methyl-1H-pyrazol-4-yl)-6-(trifluoromethyl)pyridin-4-amine] |  | > 1.67 | 201 to 500
CC(C)Oc1ccc(-c2cnc(CNc3cc(-n4ccnc4)nc(C(F)(F)F)c3)nc2)cc1 [Compound 45, 2-(1H-Imidazol-1-yl)-N-((5-(4-isopropoxyphenyl)pyrimidin-2-yl)methyl)-6-(trifluoromethyl)pyridin-4-amine] |  | > 1.67 | 201 to 500
CC(C)Oc1ccc(-c2cnc(CNc3cc(-n4ccnc4)nc(C(F)(F)F)c3)nc2)cc1Cl [Compound 46, N-((5-(3-Chloro-4-isopropoxyphenyl)pyrimidin-2-yl)methyl)-2-(1H-imidazol-1-yl)-6-(trifluoromethyl)pyridin-4-amine] |  | 1.02 to 1.67 | 201 to 500
N#Cc1cc(-c2ncc(CNc3cc(-c4cn[nH]c4)nc(C(F)(F)F)c3)cn2)ccc1Cl [Compound 50, 5-(5-(((2-(1H-Pyrazol-4-yl)-6-(trifluoromethyl)pyridin-4-yl)amino)methyl)pyrimidin-2-yl)-2-chlorobenzonitrile] |  |  | 101 to 200
Fc1cccc(Oc2ccc(-c3ncc(CNc4cc(-c5cn[nH]c5)nc(C(F)(F)F)c4)cn3)cc2)c1 [Compound 52, N-((2-(4-(3-Fluorophenoxy)phenyl)pyrimidin-5-yl)methyl)-2-(1H-pyrazol-4-yl)-6-(trifluoromethyl)pyridin-4-amine] |  | > 1.67 | 101 to 200
Fc1ccc(Oc2ccc(-c3ncc(CNc4cc(-c5cn[nH]c5)nc(C(F)(F)F)c4)cn3)cc2)cc1 [Compound 53, N-((2-(4-(4-Fluorophenoxy)phenyl)pyrimidin-5-yl)methyl)-2-(1H-pyrazol-4-yl)-6-(trifluoromethyl)pyridin-4-amine] |  | > 1.67 | 101 to 200
FC(F)(F)c1cc(NCc2cnc(-c3ccc(Oc4ccc(Cl)cc4)cc3)nc2)cc(-c2cn[nH]c2)n1 [Compound 54, N-((2-(4-(4-Chlorophenoxy)phenyl)pyrimidin-5-yl)methyl)-2-(1H-pyrazol-4-yl)-6-(trifluoromethyl)pyridin-4-amine] | > 10 | > 1.67 | 
CC(C)Oc1ccc(-c2ncc(CNc3cc(-n4cncn4)nc(C(F)(F)F)c3)cn2)cc1 [Compound 59, N-((2-(4-Isopropoxyphenyl)pyrimidin-5-yl)methyl)-2-(1H-1,2,4-triazol-1-yl)-6-(trifluoromethyl)pyridin-4-amine] |  | > 1.67 | 101 to 200
FC(F)(F)c1cc(SCc2nc3cc(Oc4ccccc4)ccc3[nH]2)cc(-n2ccnc2)n1 [Compound 62, 2-(((2-(1H-Imidazol-1-yl)-6-(trifluoromethyl)pyridin-4-yl)thio)methyl)-5-phenoxy-1H-benzo[d]imidazole] |  |  | 201 to 500
FC(F)(F)c1nc(SCc2nc3cc(Oc4ccccc4)ccc3[nH]2)cc(-n2ccnc2)n1 [Compound 63, 2-(((6-(1H-Imidazol-1-yl)-2-(trifluoromethyl)pyrimidin-4-yl)thio)methyl)-5-phenoxy-1H-benzo[d]imidazole] | > 10 |  | 
FC(F)(F)c1cc(SCc2nc3cc(Oc4ccccc4)ccc3[nH]2)cc(-c2cn[nH]c2)n1 [Compound 64, 2-(((2-(1H-pyrazol-4-yl)-6-(trifluoromethyl)pyridin-4-yl)thio)methyl)-5-phenoxy-1H-benzo[d]imidazole] | > 10 |  | 101 to 200
CC(C)Oc1ccc(-c2ncc(CNc3cc(-c4cncs4)nc(C(F)(F)F)c3)cn2)cc1 [Compound 70, N-((2-(4-Isopropoxyphenyl)pyrimidin-5-yl)methyl)-2-(thiazol-5-yl)-6-(trifluoromethyl)pyridin-4-amine] |  | > 1.67 | 101 to 200
